Where two headings read alike, the source gives them in different places.
Assays:
[1] = system: goosegrass; test: Test C pre-/postemergence herbicide test; assay type: in vivo, Eleusine indica; conditions: Eleusine indica, pre-emergence, 312 h, read-out: Plant response rating, Goosegrass
Method in brief: (§1)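 Emerged plants at the 1- to 4-leaf stage (2–18 cm), or freshly planted seeds, received test chemicals in a non-phytotoxic solvent mixture with surfactant. Response was visually scored against controls after 12 to 14 days in the greenhouse, on a 0 (no effect) to 100 (complete control) scale.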

[2] = system: smallflower umbrella sedge; test: Test C flooded paddy test; assay type: in vivo, Cyperus difformis; conditions: Cyperus difformis
[3] = system: giant foxtail; test: Test B pre-/postemergence herbicide test; assay type: in vivo, Setaria faberi; conditions: Setaria faberi, 336 h; for pest or weed control at 125 g/ha: 125 g ai/ha; for pest or weed control at 500 g/ha: 500 g ai/ha
Method in brief: (§2)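 Plants compared with untreated controls 13–15 days post-treatment and given a visual 0–100 injury score. Applications: preemergence to seeds; postemergence at 1- to 4-leaf (2–18 cm); paddy species flooded, 2-leaf stage. Vehicle non-phytotoxic, surfactant included.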

[4] = system: large crabgrass; test: Test C pre-/postemergence herbicide test; assay type: in vivo, Digitaria sanguinalis; conditions: Digitaria sanguinalis, pre-emergence, 312 h, read-out: Plant response rating, Crabgrass, Large
Method in brief: as §1

[5] = system: kochia; test: Test C pre-/postemergence herbicide test; assay type: in vivo, Kochia scoparia; conditions: Bassia scoparia, pre-emergence, read-out: Plant response rating, Kochia
Method in brief: as §1

[6] = system: Surinam grass; test: Test C pre-/postemergence herbicide test; assay type: in vivo, Urochloa decumbens; conditions: Urochloa decumbens, pre-emergence, 312 h, read-out: Plant response rating, Surinam Grass
Method in brief: as §1

[7] = system: pigweed; test: Test B pre-/postemergence herbicide test; assay type: in vivo, Amaranthus retroflexus; conditions: Amaranthus retroflexus, 336 h; for pest or weed control at 125 g/ha: 125 g ai/ha; for pest or weed control at 500 g/ha: 500 g ai/ha
Method in brief: as §2

[8] = system: lambsquarters; test: Test C pre-/postemergence herbicide test; assay type: in vivo, Chenopodium album; conditions: Chenopodium album, pre-emergence, read-out: Plant response rating, Lambsquarters
Method in brief: as §1

[9] = system: common ragweed; test: Test C pre-/postemergence herbicide test; assay type: in vivo, Ambrosia elatior; conditions: Ambrosia artemisiifolia, pre-emergence, read-out: Plant response rating, Ragweed
Method in brief: as §1

[10] = 62 g ai/ha, preemergence, scale 0 to 100
[11] = 125 g ai/ha, scale 0 (no effect) to 100 (complete control), visual, 12 to 14 days
[12] = 500 g ai/ha, scale 0 to 100 (0 no effect, 100 complete control), visual, 12 to 14 days

CCN1N=C(C(C)(C)C)CC1C(=O)Nc1cc(C(=O)N(C)C)ccc1F (stereo not shown) [Compound 268, N-[5-[(dimethylamino)carbonyl]-2-fluorophenyl]-3-(1,1-dimethylethyl)-1-ethyl-4,5-dihydro-1H-pyrazole-5-carboxamide]
pest or weed control at 62 g/ha [1, 10]: 85% | pest or weed control at 125 g/ha [1, 11]: 90% | pest or weed control at 250 g/ha ([1]; 250 g ai/ha, scale 0-100): 100% | pest or weed control at 500 g/ha [1, 12]: 100% | pest or weed control at 62 g/ha ([2]; 62 g ai/ha, scale 0 to 100, read-out: Sedge, Umbrella plant response rating): 55% | pest or weed control at 125 g/ha ([2]; 125 g ai/ha, scale 0 to 100 (0 no effect, 100 complete control), read-out: Sedge, Umbrella plant response rating): 70% | pest or weed control at 250 g/ha ([2]; 250 g ai/ha, scale of 0 to 100, 0 is no effect, 100 is complete control, read-out: Sedge, Umbrella plant response rating): 80% | pest or weed control at 500 g/ha ([2]; 500 g ai/ha, visual rating after 12 to 14 days, scale 0 to 100 (0 no effect, 100 complete control), read-out: Plant response rating, Sedge, Umbrella): 95% | pest or weed control at 125 g/ha ([3]; post-emergence, postemergence, visual rating, scale 0 (no effect) to 100 (complete control), read-out: Foxtail, Giant plant response rating): 10% | pest or weed control at 500 g/ha ([3]; post-emergence, postemergence, scale 0 to 100, 0 is no effect, 100 is complete control, read-out: Foxtail, Giant plant response rating): 20% | pest or weed control at 125 g/ha ([3]; pre-emergence, 0 = no effect, 100 = complete control, read-out: Foxtail, Giant plant response rating (0 to 100 scale)): 100% | pest or weed control at 500 g/ha ([3]; pre-emergence, visual rating, 0 = no effect, 100 = complete control, read-out: Plant response rating, Foxtail, Giant): 100% | pest or weed control at 62 g/ha [4, 10]: 90% | pest or weed control at 125 g/ha [4, 11]: 95% | pest or weed control at 250 g/ha ([4]; 250 g ai/ha, scale 0-100): 100% | pest or weed control at 500 g/ha [4, 12]: 100% | pest or weed control at 62 g/ha [5, 10]: 100% | pest or weed control at 125 g/ha [5, 11]: 100% | pest or weed control at 250 g/ha ([5]; 250 g ai/ha, scale 0-100): 100% | pest or weed control at 500 g/ha [5, 12]: 100% | pest or weed control at 62 g/ha [6, 10]: 70% | pest or weed control at 250 g/ha ([6]; 250 g ai/ha, scale 0-100): 95% | pest or weed control at 500 g/ha [6, 12]: 100% | pest or weed control at 125 g/ha ([7]; post-emergence, postemergence, visual rating, scale 0 (no effect) to 100 (complete control), read-out: Pigweed plant response rating): 20% | pest or weed control at 500 g/ha ([7]; post-emergence, postemergence, scale 0 to 100, 0 is no effect, 100 is complete control, read-out: Pigweed plant response rating): 50% | pest or weed control at 125 g/ha ([7]; pre-emergence, 0 = no effect, 100 = complete control, read-out: Pigweed plant response rating (0 to 100 scale)): 100% | pest or weed control at 500 g/ha ([7]; pre-emergence, visual rating, 0 = no effect, 100 = complete control, read-out: Plant response rating, Pigweed): 100% | pest or weed control at 62 g/ha [8, 10]: 100% | pest or weed control at 125 g/ha [8, 11]: 100% | pest or weed control at 250 g/ha ([8]; 250 g ai/ha, scale 0-100): 100% | pest or weed control at 500 g/ha [8, 12]: 100% | pest or weed control at 62 g/ha [9, 10]: 70% | pest or weed control at 250 g/ha ([9]; 250 g ai/ha, scale 0-100): 100% | pest or weed control at 500 g/ha [9, 12]: 100%

From patent publication US20060069132A1, “Azolecarboxamide herbicides” (priority 2004, published 2006)
